Test results published in patent publication US12642270B2, “Substituted thiophene carboxamides, thiophene carboxylic acids and derivatives thereof” (Bayer Aktiengesellschaft, priority 2019, dated 2026).

Experiment: Log P by HPLC on reversed phase columns (EEC directive 79/831 Annex V.A8)
Format: physicochemical
Method: In the above tables, measurement of Log P values was performed according to EEC directive 79/831 Annex V.A8 by HPLC (High Performance Liquid Chromatography) on reversed phase columns with the following methods: • ^[a] Log P value is determined by measurement of LC-UV, in an acidic range, with 0.1% formic acid in water and acetonitrile as eluent (linear gradient from 10% acetonitrile to 95% acetonitrile). • ^[b] Log P value is determined by measurement of LC-UV, in a neutral range, with 0.001 molar ammonium acetate solution in water and acetonitrile as eluent (linear gradient from 10% acetonitrile to 95% acetonitrile). • ^[c] Log P value is determined by measurement of LC-UV, in an acidic range, with 0.1% phosphoric acid and acetonitrile as eluent (linear gradient from 10% acetonitrile to 95% acetonitrile). If more than one Log P value is available within the same method, all the values are given and separated by “+”. Calibration was done with straight-chain alkan2-ones (with 3 to 16 carbon atoms) with known Log P values (measurement of Log P values using retention times with linear interpolation between successive alkanones). Lambda-max-values were determined using UV-spectra from 200 nm to 400 nm and the peak values of the chromatographic signals.

[1] = method [a], compounds of formula (I), Table 1.1
[2] = method marker [a] given with each value, Table 1.1, compounds of formula (I)

| SMILES | LogP [1] | other results |
| --- | --- | --- |
| C=CC1CC1(NC(=O)c1sc(Br)c(Br)c1F)C(=O)OC (mixture of isomers) [1.0008] | 3.37^[a] |  |
| CCOC(=O)C(NC(=O)c1cc(C)c(Cl)s1)C(C)C (racemic) [1.0002] | 3.48^[a] |  |
| CCOC(=O)C(NC(=O)c1cc(F)c(Br)s1)C(C)C (racemic) [1.0003] | 3.46^[a] |  |
| COC(=O)C(CC(F)F)NC(=O)c1cc(F)c(Br)s1 (racemic) [1.0004] | 2.68^[a] |  |
| CSCCC(NC(=O)c1cc(Br)c(Cl)s1)C(=O)O (racemic) [1.0005] | 2.58^[a] |  |
| COC(=O)C1(NC(=O)c2sc(Br)c(Br)c2F)CCOC1 (racemic) [1.0009] | 2.76^[a] |  |
| CCOC(=O)C(CO)NC(=O)c1sc(Br)c(Br)c1F (racemic) [1.0012] | 2.51^[a] |  |
| CCSC(=O)C(CC(C)C)NC(=O)c1sc(Br)c(Br)c1F (racemic) [1.0013] | 5.05^[a] |  |
| CCSC(=O)C(NC(=O)c1sc(Br)c(Br)c1F)C(C)C (racemic) [1.0014] | 4.87^[a] |  |
| CCOC(=O)C(CO)NC(=O)c1sc(Cl)c(Br)c1C (racemic) [1.0019] | 2.54^[a] |  |
| CCSC(=O)C(CC(C)C)NC(=O)c1sc(Cl)c(Br)c1C (racemic) [1.0020] | 5.03^[a] |  |
| CCSC(=O)C(NC(=O)c1sc(Cl)c(Br)c1C)C(C)C (racemic) [1.0021] | 4.74^[a] |  |
| CCOC(=O)C(NC(=O)c1sc(C#N)c(Br)c1C)C(C)C (racemic) [1.0027] | 3.52^[a] |  |
| CCOC(=O)C(Cc1ccccc1)NC(=O)c1sc(C#N)c(Br)c1C (racemic) [1.0028] | 3.74^[a] |  |
| CCOC(=O)C(Cc1ccccc1)NC(=O)c1cc(Br)c(Cl)s1 (racemic) [1.0029] | 4.06^[a] |  |
| CCOC(=O)C(Cc1ccccc1)NC(=O)c1cc(F)c(Br)s1 (racemic) [1.0030] | 3.69^[a] |  |
| CCOC(=O)C(Cc1ccccc1)NC(=O)c1cc(C)c(Cl)s1 (racemic) [1.0031] | 3.73^[a] |  |
| CC(C)(C)OC(=O)C(NC(=O)c1sc(Br)c(Br)c1F)C1CC1 (racemic) [1.0921] |  | LogP (method [a]): 4.89^[a] |
| O=C(NC(C(=O)OC1CCC1)C1CC1)c1sc(Br)c(Br)c1F (racemic) [1.0922] |  | LogP (method [a]): 4.59^[a] |
| CC(C)OC(=O)C(NC(=O)c1sc(Br)c(Br)c1F)C1CC1 (racemic) [1.0923] |  | LogP (method [a]): 4.40^[a] |
| COC(=O)C(Cc1ccc(Cl)cc1)NC(=O)c1sc(Br)c(Br)c1Cl (racemic) [1.0940] |  | LogP [2]: 4.95^[a] |
| COC(=O)C(C)(Cc1ccccc1)NC(=O)c1sc(Br)c(Br)c1Cl (racemic) [1.0941] |  | LogP [2]: 5.12^[a] |

| SMILES | LogP [1] | other results |
| --- | --- | --- |
| COC(=O)C(NC(=O)c1sc(Br)c(Br)c1Cl)c1cccs1 (racemic) [1.0942] |  | LogP [2]: 4.25^[a] |
| CCOC(=O)C(NC(=O)c1sc(Br)c(Br)c1Cl)C(F)(F)F (racemic) [1.0943] |  | LogP [2]: 4.50^[a] |
| CCOC(=O)C(NC(=O)c1sc(Cl)c(Cl)c1Br)C(F)(F)F (racemic) [1.0946] |  | LogP [2]: 4.52^[a] |
| COC(=O)C(NC(=O)c1sc(Cl)c(Cl)c1Br)c1cccs1 (racemic) [1.0947] |  | LogP [2]: 4.26^[a] |
| COC(=O)C(C)(Cc1ccccc1)NC(=O)c1sc(Cl)c(Cl)c1Br (racemic) [1.0948] |  | LogP [2]: 5.15^[a] |
| CCOC(=O)C(NC(=O)c1sc(Br)c(Br)c1F)C(F)(F)F (racemic) [1.0952] |  | LogP [2]: 4.08^[a] |
| COC(=O)C(NC(=O)c1sc(Br)c(Br)c1F)c1cccs1 (racemic) [1.0953] |  | LogP [2]: 3.84^[a] |
| CCOC(=O)CNC(=O)c1sc(C)c(Br)c1F [1.0001] | 2.69^[a] |  |
| COC(=O)C1(NC(=O)c2sc(Br)c(Br)c2F)CCC(F)(F)CC1 [1.0010] | 3.74^[a] |  |
| CCOC(=O)C1(NC(=O)c2sc(Br)c(Br)c2F)CCOCC1 [1.0011] | 3.13^[a] |  |
| O=C(CNC(=O)c1sc(Br)c(Br)c1F)SCc1ccccc1 [1.0015] | 4.15^[a] |  |
| O=C(CNC(=O)c1sc(Br)c(Br)c1F)Sc1ccccc1 [1.0016] | 3.89^[a] |  |
| CCOC(=O)C1(NC(=O)c2sc(Cl)c(Br)c2C)CCOCC1 [1.0018] | 3.15^[a] |  |
| Cc1c(C(=O)NCC(=O)SCc2ccccc2)sc(Cl)c1Br [1.0022] | 4.37^[a] |  |
| CCOC(=O)CNC(=O)c1sc(C#N)c(Br)c1C [1.0024] | 2.46^[a] |  |
| CCOC(=O)CCNC(=O)c1sc(C#N)c(Br)c1C [1.0025] | 2.52^[a] |  |
| CCOC(=O)C1(NC(=O)c2sc(C#N)c(Br)c2C)CC1 [1.0026] | 2.58^[a] |  |
| COC(=O)CC1(NC(=O)c2sc(Cl)c(Br)c2C)CC1 [1.0032] | 3.04^[a] |  |
| CCOC(=O)C1(CNC(=O)c2sc(Cl)c(Br)c2C)CC1 [1.0033] | 3.79^[a] |  |
| CCOC(=O)C1(NC(=O)c2sc(Cl)c(Br)c2C)COC1 [1.0034] | 2.88^[a] |  |
| COC(=O)C1(NC(=O)c2sc(Cl)c(Br)c2C)CSC1 [1.0035] | 3.29^[a] |  |
| CCOC(=O)C(CC(N)=O)NC(=O)c1sc(Cl)c(Br)c1C (stereo not shown) [1.0036] | 2.25^[a] |  |

| SMILES | LogP [1] | other results |
| --- | --- | --- |
| CCOC(=O)C(CC(F)(F)F)NC(=O)c1sc(Cl)c(Br)c1C (stereo not shown) [1.0038] | 3.99^[a] |  |
| CCOC(=O)C1(CNC(=O)c2sc(Br)c(Cl)c2C)CC1 [1.0040] | 3.75^[a] |  |
| CCOC(=O)C1(NC(=O)c2sc(Br)c(Cl)c2C)COC1 [1.0041] | 2.84^[a] |  |
| COC(=O)C1(NC(=O)c2sc(Br)c(Cl)c2C)CSC1 [1.0042] | 3.25^[a] |  |
| CCOC(=O)C(CC(N)=O)NC(=O)c1sc(Br)c(Cl)c1C (stereo not shown) [1.0043] | 2.22^[a] |  |
| CCOC(=O)C(CC(F)(F)F)NC(=O)c1sc(Br)c(Cl)c1C (stereo not shown) [1.0045] | 3.94^[a] |  |
| CCOC(=O)C1(NC(=O)c2sc(Br)c(Br)c2F)COC1 [1.0046] | 2.77^[a] |  |
| COC(=O)C1(NC(=O)c2sc(Br)c(Br)c2F)CSC1 [1.0047] | 3.19^[a] |  |
| CCOC(=O)C(CC(N)=O)NC(=O)c1sc(Br)c(Br)c1F (stereo not shown) [1.0048] | 2.17^[a] |  |
| CCOC(=O)C(CC(F)(F)F)NC(=O)c1sc(Br)c(Br)c1F (stereo not shown) [1.0050] | 3.88^[a] |  |
| CCOC(=O)C(Cc1ccccc1)NC(=O)c1sc(Br)c(Br)c1F (stereo not shown) [1.0051] | 4.55^[a] |  |
| CCOC(=O)CNC(=O)c1cc(Br)c(C#N)s1 [1.0052] | 2.16^[a] |  |
| CCOC(=O)C1(NC(=O)c2cc(Br)c(C#N)s2)CC1 [1.0053] | 2.45^[a] |  |
| CCOC(=O)C(NC(=O)c1cc(Br)c(C#N)s1)C(C)C (stereo not shown) [1.0054] | 3.27^[a] |  |
| CCOC(=O)C(Cc1ccccc1)NC(=O)c1cc(Br)c(C#N)s1 (stereo not shown) [1.0055] | 3.50^[a] |  |
| CCOC(=O)CNC(=S)c1sc(Cl)c(Cl)c1Br [1.0059] | 4.61^[a] |  |
| CCOC(=O)C(CC(C)C)NC(=O)c1sc(Br)c(Br)c1F (stereo not shown) [1.0062] | 4.67^[a] |  |
| CCOC(=O)CNC(=O)c1sc(Cl)c(Br)c1C [1.0063] | 2.98^[a] |  |
| CCOC(=O)CCNC(=O)c1sc(Cl)c(Br)c1C [1.0064] | 3.15^[a] |  |
| CCOC(=O)C1(NC(=O)c2sc(Cl)c(Br)c2C)CC1 [1.0065] | 3.17^[a] |  |
| CCOC(=O)C1(NC(=O)c2sc(Cl)c(Br)c2C)CCC1 [1.0066] | 3.71^[a] |  |
| CCOC(=O)C(NC(=O)c1sc(Cl)c(Br)c1C)C(C)C (stereo not shown) [1.0067] | 4.30^[a] |  |

| SMILES | LogP [1] | other results |
| --- | --- | --- |
| COC(=O)C(CC(F)F)NC(=O)c1sc(Cl)c(Br)c1C (stereo not shown) [1.0068] | 3.33^[a] |  |
| CCOC(=O)C(CC(C)C)NC(=O)c1sc(Cl)c(Br)c1C (stereo not shown) [1.0069] | 4.58^[a] |  |
| CCOC(=O)C(CCSC)NC(=O)c1sc(Cl)c(Br)c1C (stereo not shown) [1.0070] | 3.99^[a] |  |
| CCOC(=O)C(Cc1ccccc1)NC(=O)c1sc(Cl)c(Br)c1C (stereo not shown) [1.0071] | 4.51^[a] |  |
| CCOC(=O)CNC(=O)c1sc(Br)c(Cl)c1C [1.0072] | 2.94^[a] |  |
| CCOC(=O)CCNC(=O)c1sc(Br)c(Cl)c1C [1.0073] | 3.11^[a] |  |
| CCOC(=O)C1(NC(=O)c2sc(Br)c(Cl)c2C)CC1 [1.0074] | 3.13^[a] |  |
| CCOC(=O)C1(NC(=O)c2sc(Br)c(Cl)c2C)CCC1 [1.0075] | 3.67^[a] |  |
| CCOC(=O)C(NC(=O)c1sc(Br)c(Cl)c1C)C(C)C (stereo not shown) [1.0076] | 4.25^[a] |  |
| COC(=O)C(CC(F)F)NC(=O)c1sc(Br)c(Cl)c1C (stereo not shown) [1.0077] | 3.29^[a] |  |
| CCOC(=O)C(CC(C)C)NC(=O)c1sc(Br)c(Cl)c1C (stereo not shown) [1.0078] | 4.53^[a] |  |
| CCOC(=O)C(CCSC)NC(=O)c1sc(Br)c(Cl)c1C (stereo not shown) [1.0079] | 3.94^[a] |  |
| CCOC(=O)C(Cc1ccccc1)NC(=O)c1sc(Br)c(Cl)c1C (stereo not shown) [1.0080] | 4.46^[a] |  |
| CCOC(=O)CCNC(=O)c1sc(Br)c(Br)c1I [1.0081] | 3.48^[a] |  |
| CCOC(=O)C1(NC(=O)c2sc(Br)c(Br)c2I)CCC1 [1.0082] | 4.08^[a] |  |
| COC(=O)C(CC(F)F)NC(=O)c1sc(Br)c(Br)c1I (stereo not shown) [1.0083] | 3.60^[a] |  |
| CCOC(=O)CCNC(=O)c1sc(Cl)c(Cl)c1Br [1.0084] | 3.50^[a] |  |
| CCOC(=O)C1(NC(=O)c2sc(Cl)c(Cl)c2Br)CCC1 [1.0085] | 4.23^[a] |  |
| COC(=O)C(CC(F)F)NC(=O)c1sc(Cl)c(Cl)c1Br (stereo not shown) [1.0086] | 3.60^[a] |  |
| CCOC(=O)CNC(=O)c1sc(Br)c(I)c1C [1.0087] | 3.09^[a] |  |
| CCOC(=O)CCNC(=O)c1sc(Br)c(I)c1C [1.0088] | 3.23^[a] |  |
| CCOC(=O)C1(NC(=O)c2sc(Br)c(I)c2C)CC1 [1.0089] | 3.25^[a] |  |
